The test system of one series is activated Akt. Description: Level of activated Akt in muscle cells, Western immunoblotting. Type of series: cell-based, mouse. Conditions: for FOLD AKT ACTIVATION (OVER CONTROL): 30 minutes; for Akt activity (in words): summary of Table 2. On the procedure:
(§1) In Vitro Effect of Selected Compounds on Glut-4, activated AMPK, and activated Akt The levels of Glut-4, activated AMPK and activated Akt were measured in mouse muscle cells C2C12 (from ATTC) and in primary culture of human skeletal muscle cells (Clonetics, Inc.) using Western immunoblotting. C2C12 cells were plated at […] cells per mL/well (12-well plate) in standard cell culture medium (DMEM supplemented with 10% fetal bovine serum (FBS), 25 mM glucose, 20 mM Hepes, 4 mM glutamine and 2 mM sodium pyruvate. 48 hrs after the plating, medium was changed to differentiation medium (DMEM supplemented with 5 mM of glucose and 0.5% of FBS) for next 3-4 days to stimulate the formation of myotubes. Three hrs before the treatment with selected agents, cells were washed with PBS and transferred to PBS supplemented with 5 mM of glucose.
(§2) Human skeletal muscle cells (HSKM) were cultured in SKBM-2 mediums provided by Clonetics. 48 hrs after cell plating, medium was changed to SKBM medium to stimulate differentiation of the cells to myotubes. When differentiated, the myotubes were transferred to PBS supplemented with 5 mM glucose for three hrs before the treatment.
(§3) Analysis of C2C12 cells for the level of activated AMPK, Akt and the level of GLUT-4 was performed in the same experimental system. The cells were treated for 30 minutes at 37° C. […] Subsequently, 20 μg per sample of sample protein was used for Western analysis using NuPage 10% Bis/Tris gels (Invitrogen). After exposure of membranes to primary and secondary antibodies AMPK, AKT or Glut-4 was detected using ECL-Plus (Amersham) following producer's instruction. Chemilumiscent signals were detected by using ChemiDoc system from Biorad. Intensity of detected signals were analyzed and measured using Quantity One software (Biorad). Alternatively, the level of phosphorylated AMPK was detected using ECL kit from Amersham and short exposure to Kodak films.
(§4) Experimental setup: Cell Culture was followed by treatment with selected contemplated compounds, which was followed by cell lysis and western blot analysis for AMPK, Akt, GLUT4, total AMPK, and total Akt. Signals were acquired accordingly.

A further series relates to activated AMPK. Description: Level of activated AMPK in muscle cells, Western immunoblotting. As to conditions: for AMPK activity (in words): summary of Table 1. Type of series: cell-based, mouse. The protocol: as §1, §2, §3, §4
Series [1] can be described thus: Serum level of DHZ in mice after oral or i.p. administration (ELISA). Type of series: in vivo, mouse. As to conditions: C57/B1 mice, 100 microgram/dose. On the procedure:
C57/B1 mice were treated with 100 microgram/dose of dihydrozeatin (DHZ) for 0, 15, 30, 60 and 120 minutes following oral or i.p. administration. Serum level of DHZ in pg/ml was measured using DHZ Elisa following procedures as enclosed in a commercially available test kit (e.g., dihydrozeatin competitive ELISA test system for plant growth hormone detection, Agdia, Elkhard, Ind.). Three animals were used per experimental point.

The next series has as its system muscle cells. Description: In vitro myocyte total glucose uptake, fluorescent glucose analog. The series is classed as cell-based. As to conditions: summary of Table 4. On the procedure: Total glucose uptake was measured using fluorescent glucose analog from Molecular Probes. Briefly, muscle cells were treated with kinetin, N^2-Acetyl-Guanosine and N^2-Acetyl-Guanine for 30 minutes at 37 C first and subsequently, these cells were exposed to 500 μM of fluorescent glucose analog for 5 minutes at room temperature. Next, cells were washed twice with cold Krebs-Hepes buffered solution and fixed in 70% ethanol in water. Fluorescence of fluorescent glucose in the cells was measured using fluorescent plate reader at 480/530 nm (excitation/emission). […] Table 4 refers to multiple independent experiments where multiple identical concentrations for the same reagents are indicated.

In another series the test system is GLUT-4. Description: GLUT-4 protein level in C2C12 cells, Western immunoblotting. Type of series: cell-based, mouse. Conditions: summary of Table 3. The protocol:
as §1
Analysis of C2C12 cells for the level of activated AMPK, Akt and the level of GLUT-4 was performed in the same experimental system. The cells were treated for 30 minutes at 37° C. […] After exposure of membranes to primary and secondary antibodies AMPK, AKT or Glut-4 was detected using ECL-Plus (Amersham) following producer's instruction. Chemilumiscent signals were detected by using ChemiDoc system from Biorad. Intensity of detected signals were analyzed and measured using Quantity One software (Biorad). Alternatively, the level of phosphorylated AMPK was detected using ECL kit from Amersham and short exposure to Kodak films. […]

Entries after “also recorded” stand apart in the source; their conditions may differ.

Regarding `NC(=O)c1ncn([C@@H]2O[C@H](CO)[C@@H](O)[C@H]2O)c1N` [AICAR, 4-Amino-5-imidazolecarboxamide riboside, reference compound], the “FOLD AKT ACTIVATION (OVER CONTROL)” value with activated Akt (50.0 microM) stood at 2.20 fold.

For the molecule `c1ccc(CNc2ncnc3nc[nH]c23)cc1` [Benzyl-Adenine], the “FOLD AMPK ACTIVATION (OVER CONTROL)” value with activated AMPK (5.0 microM, 30 minutes) is recorded as 2.70 fold.

In the case of `CC(CO)CCNc1ncnc2nc[nH]c12` (stereo not drawn) [Dihydro-Zeatin, dihydrozeatin], the “time over which significant serum concentrations can be maintained” value in series [1] is “at least 120 minutes”. The “oral bioavailability (in words)” value in series [1] (oral) was “readily bioavailable from the oral route”.

Take `CC(C)=CCNc1ncnc2nc[nH]c12` [Gamma, Gamma-Dimethylally-6-Aminopurine]: the “FOLD AKT ACTIVATION (OVER CONTROL)” value in the series with activated Akt (0.8 microM) amounted to 1.90 fold.

Turning to `Nc1nc2c(ncn2[C@@H]2O[C@H](CO)[C@@H](O)[C@H]2O)c(=O)[nH]1` [Guanosine], the “Akt activity (in words)” value with activated Akt is on record as “potent activators of AMPK as well as Akt”. Besides, the “AMPK activity (in words)” value in the series with activated AMPK is recorded as “potent activators of AMPK as well as Akt”.

Regarding `c1coc(CNc2ncnc3[nH]cnc23)c1` [Kinetin, kinetin], in the series with muscle cells, the “glucose uptake in muscle cells in vitro (in words)” value (from here on “glucose uptake in muscle cells”) is given as “potently enhance glucose uptake”. In the series with activated AMPK, the “AMPK activity (in words)” value is recorded as “more potent compounds”. The “GLUT-4 protein level (in words)” value in the series with GLUT-4 was “potently increase GLUT-4 protein level”.

Regarding `CN(C)C(=N)N=C(N)N` [Metformin, reference compound], the “FOLD AKT ACTIVATION (OVER CONTROL)” value in the series on activated Akt (20.0 milliM) came out at 2.32 fold.

Turning to `CC(=O)Nc1nc2nc[nH]c2c(=O)[nH]1` [N^2-Acetyl-Guanine, N2-acetylguanine], the “Akt activity (in words)” value in the series on activated Akt is listed as “potent activators of AMPK as well as Akt”. The “glucose uptake in muscle cells” value with muscle cells is “potently enhance glucose uptake”. The “AMPK activity (in words)” value with activated AMPK is “potent activators of AMPK as well as Akt”. Also, the “GLUT-4 protein level (in words)” value in the series with GLUT-4 is given as “potently increase GLUT-4 protein level”.

Regarding `CC(=O)Nc1nc2c(ncn2[C@@H]2O[C@H](CO)[C@@H](O)[C@H]2O)c(=O)[nH]1` [N^2-Acetyl-Guanosine], the “Akt activity (in words)” value with activated Akt is reported as “potent activators of AMPK as well as Akt”. In addition, the “glucose uptake in muscle cells” value with muscle cells is “potently enhance glucose uptake”. In addition, in the series with activated AMPK, the “AMPK activity (in words)” value is given as “potent activators of AMPK as well as Akt”. In the series on GLUT-4, the “GLUT-4 protein level (in words)” value is recorded as “potently increase GLUT-4 protein level”.

As to `C/C(=C\CNc1ncnc2nc[nH]c12)CO` [Trans-Zeatin], the “FOLD AKT ACTIVATION (OVER CONTROL)” value with activated Akt (1.0 microM) stood at 0.90 fold; in the series with activated Akt (10.0 microM) it was 0.86 fold.

As to `C/C(=C\CNc1ncnc2[nH]cnc12)CO` [Zeatin], the “FOLD AKT ACTIVATION (OVER CONTROL)” value with activated Akt (1.0 microM) was determined as 0.95 fold. The “Akt activity (in words)” value in the series on activated Akt is “not Akt”. Besides, the “AMPK activity (in words)” value with activated AMPK was “more potent compounds; also recorded: potent stimulator of AMPK”.

Turning to “Insulin: Insulin, comparator in the Akt activation test”, the “FOLD AKT ACTIVATION (OVER CONTROL)” value in the series with activated Akt (0.10 nanoM) turned out to be 1.75 fold; in the series with activated Akt (25.0 nanoM), 3.40 fold; in the series with activated Akt (50.0 nanoM), 3.28 fold.
